Measurements reported in PubChem BioAssay AID1996.
Values after ≈ are worked out from the molar mass of the structure shown.

conditions: buffer; pH 7.4; 200.0 µM

Row | SMILES | solubility kinetic
1 | CCc1ccc(C)c(OC(=O)c2cncc(Br)c2)c1 | 2.1 µg/mL (≈ 6.56 µM)
2 | C=CCNC(=O)N1CCCC(C(=O)c2cccc(OC(C)C)c2)C1 (centres undefined) | > 49.6 µg/mL
3 | COc1cccc(/C(N)=N/OC(=O)Cc2ccccc2[N+](=O)[O-])c1 | 31.7 µg/mL (≈ 96.3 µM)
4 | COC(=O)CSc1nc(C)c2c(n1)CCCC2 | 37.6 µg/mL (≈ 149 µM)
5 | Cc1cccc(NC(=O)N2CCC(NC(=O)c3ccco3)CC2)c1 | > 49.1 µg/mL
6 | CCNC(=S)N(Cc1cc2c(C)ccc(C)c2[nH]c1=O)C1CCCC1 | < 0.3 µg/mL
7 | CC1CCCCC1NC(=O)CNC(=O)c1ccco1 (centres undefined) | 37.2 µg/mL (≈ 141 µM)
8 | CCc1c(C)sc(NC(=S)Nc2nc(C)cc(C)n2)c1C(=O)OC | < 0.2 µg/mL
9 | CCCc1cnc(N2CCN(C(=O)c3ccc(F)cc3)CC2)nc1 | > 49.3 µg/mL
10 | Cc1cc(S(=O)(=O)Nc2c(C)nn(C)c2C)c(Cl)cc1Cl | > 52.2 µg/mL
11 | CCOc1c(Nc2ccc(C(C)C)cc2)c(=O)c1=O | 25.3 µg/mL (≈ 97.6 µM)
12 | O=C(c1cc2ccccc2cc1O)N1CCCC1 | > 36.2 µg/mL
13 | C=CCn1c(O)c(C(C)=NC2CCN(Cc3ccccc3)CC2)c(=O)[nH]c1=O | 53.6 µg/mL (≈ 140 µM)
14 | CC(C)OCCCNC(=O)Cc1ccc(F)cc1 | > 38 µg/mL
15 | Cc1ccc(C)c(N2CN(CCC3=CCCCC3)CNC2=S)c1 | 38.7 µg/mL (≈ 117 µM)
16 | COc1cc(NC(=O)CC(C)n2ccnc2)cc(OC)c1 (centres undefined) | > 43.4 µg/mL
17 | O=C(CN1C(=O)NC2(CCCC2)C1=O)NCc1ccccc1 | > 45.2 µg/mL
18 | COc1cc(OC)nc(/N=C/N(C)C)n1 | > 31.5 µg/mL
19 | CCCNC(=O)c1cccc(Br)c1 | > 36.3 µg/mL
20 | COc1cc2c(cc1OC)C(c1ccccc1O)NCC2 (centres undefined) | 37.3 µg/mL (≈ 131 µM)
21 | CCCc1cc(=O)[nH]c(SCC(=O)Nc2ccc(S(=O)(=O)N3CCCC3)cc2)n1 | 29 µg/mL (≈ 66.4 µM)
22 | Cc1onc(-c2c(F)cccc2Cl)c1C(=O)NCc1ccccc1 | 49.7 µg/mL (≈ 144 µM)
23 | CC(C)(C)OC(=O)N1CCN(c2ccc([N+](=O)[O-])cc2)CC1 | 1.9 µg/mL (≈ 6.18 µM)
24 | O=c1cc(CO)[nH]cc1OCc1ccccc1 | 34.4 µg/mL (≈ 149 µM)

Row | SMILES | solubility kinetic
25 | Cn1ccc(=S)c2ccccc21 | 25.2 µg/mL (≈ 144 µM)
26 | CCn1cc(C(=O)NCc2ccc(OC)cc2)c(=O)c2ccc(C)nc21 | 0.4 µg/mL (≈ 1.14 µM)
27 | CN(CC(=O)Nc1cccc(F)c1)C(=O)c1ccc(N2CCOCC2)c([N+](=O)[O-])c1 | 33.7 µg/mL (≈ 80.9 µM)
28 | O=C(c1ccc(Cl)s1)N1CCN(S(=O)(=O)c2ccc(Cl)cc2)CC1 | 3.2 µg/mL (≈ 7.89 µM)
29 | O=C(c1ccc2ccccc2c1)N1CCc2ccccc21 | < 0.6 µg/mL
30 | O=C(O)c1ccccc1N(Cc1ccccc1)C(=O)COc1ccccc1 | > 54.2 µg/mL
31 | CCNC(=O)COC(=O)CCNC(=O)c1cccc(C)c1 | 35.1 µg/mL (≈ 120 µM)
32 | CCOC(=O)CC(=O)CSc1nc(CC)c(C)cc1C#N | > 46 µg/mL
33 | Cc1[nH]c2ccccc2c1C(=O)COC(=O)C1CCC1 | 24.1 µg/mL (≈ 88.8 µM)
34 | Cc1cc(=O)oc2c(CN3CCCC3)c(O)c(Cl)cc12 | > 44.1 µg/mL
35 | CC(=O)Nc1ccc(-c2nc3ccccc3o2)cc1 | 1.3 µg/mL (≈ 5.15 µM)
36 | CN1CCN(C(=S)C(=O)Nc2ccccc2)CC1 | 38.2 µg/mL (≈ 145 µM)
37 | COc1ccccc1N1CCN(C(=O)CSc2nnc(C)n2C2CC2)CC1 | > 58.1 µg/mL
38 | CC(=O)c1c(C)[nH]c(C(=O)COC(=O)COc2ccccc2)c1C | 16.3 µg/mL (≈ 49.5 µM)
39 | COc1ccc(NC(=O)C(Br)C(C)C)cc1 (centres undefined) | 40.7 µg/mL (≈ 142 µM)
40 | O=C(CN1C(=O)NC2(CCc3ccccc32)C1=O)NCc1ccc(Cl)cc1 (centres undefined) | > 57.6 µg/mL
41 | Cc1ccc2c(c1)C1(C)C(C(C)(C)N2C=O)C1(Cl)Cl (centres undefined) | 39.3 µg/mL (≈ 132 µM)
42 | Cc1cccc(C)c1NC(=S)N1CC(C)OC(C)C1 (centres undefined) | > 41.8 µg/mL
43 | NC(=NCc1ccco1)NC(=O)c1ccccc1 | > 36.5 µg/mL
44 | Cc1ccc(/C=C2\SC(N3CCCCC3)=NC2=O)cc1 | 5.7 µg/mL (≈ 19.9 µM)
45 | O=C(Nc1ccccc1N1CCCCC1)c1ccc(Cl)cc1 | 1.5 µg/mL (≈ 4.76 µM)
46 | NC(=O)CCC1NC(=S)N(Cc2ccccc2)C1=O (centres undefined) | 32.6 µg/mL (≈ 118 µM)
47 | CCN1C/C(=N\S(=O)(=O)/N=C2\CN(CC)C(=O)N2CC)N(CC)C1=O | > 55.9 µg/mL
48 | Cc1ccc(Cl)cc1NC(=O)NCCN1CCCCC1 | > 44.4 µg/mL

Row | SMILES | solubility kinetic
49 | O=C(COC(=O)c1cccc(OC(F)F)c1)Nc1cccc(S(=O)(=O)N2CCCC2)c1 | 10.9 µg/mL (≈ 24 µM)
50 | O=C(NCCC1=CCCCC1)c1c(O)nc2ccccn2c1=O | 8.7 µg/mL (≈ 27.8 µM)
51 | S=c1nc(-c2ccccc2)n(Cc2cccnc2)c2c1CCCC2 | > 50 µg/mL
52 | NS(=O)(=O)c1ccc(CCN2C(=O)CCC2=O)cc1 | > 42.3 µg/mL
53 | COc1ccc([N+](=O)[O-])cc1NC(=O)COC(C)=O | 35.7 µg/mL (≈ 133 µM)
54 | Cc1nc2c(C)[n+](CC(=O)c3ccccc3)ccc2n1C.[Br-] | > 54 µg/mL
55 | COc1ccc(NC(=O)COc2ccc3oc(=O)cc(C)c3c2)cc1 | < 0.7 µg/mL
56 | CC(C)c1ccc(NC2CCCN(C(=O)c3ccncc3)C2)cc1 (centres undefined) | 47.1 µg/mL (≈ 146 µM)
57 | Cc1cc(/C(N)=N/OC(=O)Nc2ccc(Cl)cc2)no1 | 15.9 µg/mL (≈ 54 µM)
58 | Cc1cccc(N2CCN(C(=O)NC3CCCCC3)CC2C)c1 (centres undefined) | > 47.3 µg/mL
59 | Cc1noc(C)c1COC(=O)[C@@H](NC(=O)c1ccccc1)C(C)C | > 49.6 µg/mL
60 | CCn1c(=O)c2cc(C(=O)NCCC(C)C)sc2c2ccccc21 | < 0.4 µg/mL
61 | CN(C(=O)CSc1nc2ccc(Cl)cc2[nH]1)C1CCS(=O)(=O)C1 (centres undefined) | > 56.1 µg/mL
62 | COc1ccc(OC)c(NC(=O)Nc2cccnc2)c1 | > 41 µg/mL
63 | O=C1N=C(N2CCCC2)S/C1=C\C=C\c1ccccc1 | 10.2 µg/mL (≈ 35.9 µM)
64 | Cc1ccc(S(=O)(=O)N2CCOCC2)cc1NC(=O)COC(=O)c1ccc(Cl)nc1 | > 68.1 µg/mL
65 | CCOC(=O)C1CCN(S(=O)(=O)c2c(Cl)ccc3nonc23)CC1 | > 56.1 µg/mL
66 | Cc1cc(C)cc(C(=O)NCCN2CCOCC2)c1 | > 39.4 µg/mL
67 | COCCNC(=O)C1Cc2c(ccc3ccccc23)O1 (centres undefined) | > 40.7 µg/mL
68 | COc1ccc(S(=O)(=O)NCC2CCCO2)cc1C(=O)O (centres undefined) | > 47.3 µg/mL
69 | Cc1ccc(C(=O)Nc2ccc3c(c2)OCO3)cc1Cl | < 0.6 µg/mL
70 | COC(=O)c1ccc(Nc2c([N+](=O)[O-])ccc3nonc23)cc1 | < 0.2 µg/mL
71 | Cc1ccc2c(c1)C(c1ccccc1)N(C(=O)CC(C)C)CC(=O)N2 (centres undefined) | > 50.5 µg/mL
72 | CC(=O)Nc1ccc(NC(=O)C(c2ccccc2)c2ccccc2)cc1 | 0.8 µg/mL (≈ 2.32 µM)

Row | SMILES | solubility kinetic
73 | Cn1ncc(Br)c1C(=O)N1CCCCCC1 | > 42.9 µg/mL
74 | CC(C)Cc1nc(N2CCNCC2)c(C#N)c2c1CCC2 | 41.1 µg/mL (≈ 145 µM)
75 | O=C(CC(=O)c1ccccc1)Nc1ccccn1 | > 36 µg/mL
76 | O=C(Nc1ccc(Cl)c(Cl)c1)Nc1ccccn1 | < 0.2 µg/mL
77 | O=C(C1=C(O)C(=O)N(CCOCCO)C1c1ccccn1)c1cccs1 (centres undefined) | > 56.2 µg/mL
78 | CCOC(=O)c1sc(Nc2nc(C)cc(C)n2)nc1C | 1.2 µg/mL (≈ 4.1 µM)
79 | CN(c1ccccc1)S(=O)(=O)c1ccc(Cl)c(C(=O)NCc2ccco2)c1 | 47.2 µg/mL (≈ 117 µM)
80 | O=C(/C=C/c1ccccc1Cl)Nc1ccccc1 | 0.6 µg/mL (≈ 2.33 µM)
81 | C=CCOc1ccc(CNc2ccc3[nH]c(=O)[nH]c3c2)cc1OC | 2.7 µg/mL (≈ 8.3 µM)
82 | CC1CCCCN1C(=O)c1cc2ccccc2cc1O (centres undefined) | > 40.4 µg/mL
83 | COc1ccc(NC(=O)C2CCCN(c3nc(C)cc(C)n3)C2)cc1 (centres undefined) | 1.4 µg/mL (≈ 4.11 µM)
84 | CN(NC1OC(=O)c2ccccc21)c1ccc(Cl)cc1[N+](=O)[O-] (centres undefined) | > 50.1 µg/mL
85 | c1ccn2cc(-c3ccc4c(c3)OCCO4)nc2c1 | > 37.8 µg/mL
86 | CC(=O)Nc1ccccc1OCC(=O)NCCC1=CCCCC1 | > 47.5 µg/mL
87 | CCCN(Cc1ccccc1)C(=S)Nc1ccc(F)cc1 | 39.2 µg/mL (≈ 130 µM)
88 | COc1cc(NC(=O)c2ccc(N3CCCC3=O)cc2)cc(OC)c1 | 10.4 µg/mL (≈ 30.6 µM)
89 | O=S(=O)(c1ccc(Cl)s1)N1CCNCC1 | > 40 µg/mL
90 | Cc1ccccc1NC(=O)OCc1ccccc1 | 23.7 µg/mL (≈ 98.2 µM)
91 | CNc1snc(C)c1C(=O)OCC(=O)NCc1ccccc1OC | 3.8 µg/mL (≈ 10.9 µM)
92 | CS(=O)(=O)Nc1cccc(-c2cn3c(n2)SCC3)c1 | 40 µg/mL (≈ 135 µM)
93 | CS(=O)(=O)c1ccccc1C(=O)Nc1ccc(S(=O)(=O)N2CCCC2)cc1 | > 61.3 µg/mL
94 | COc1cccc(-n2ccnc2SCC(=O)Nc2cc(C)on2)c1 | 37.5 µg/mL (≈ 109 µM)
95 | COc1ccc(CCN)cc1OC | 24.8 µg/mL (≈ 137 µM)
96 | Cc1cc(C)c(C)c(OCCNCc2ccccc2)c1.O=C(O)C(=O)O | > 53.9 µg/mL

Row | SMILES | solubility kinetic
97 | C=C(c1ccccc1Cl)[n+]1ccccc1.F[B-](F)(F)F | > 45.5 µg/mL
98 | O=c1[nH]c(O)c(C=Nc2ccccc2Sc2ccccc2)c(=O)[nH]1 | 1.3 µg/mL (≈ 3.83 µM)
99 | CCc1ccc(N(CC(=O)N2CCOCC2)S(C)(=O)=O)cc1 | > 49 µg/mL
100 | CSc1ncccc1C(=O)OCc1cccc([N+](=O)[O-])c1 | < 0.3 µg/mL
101 | C/C(=N\Nc1nc(C)cc(C)n1)c1ccc(C)o1 | > 36.6 µg/mL
102 | Cc1ccc(NC(=O)C2CC(=O)N(Cc3ccco3)C2)cc1 (centres undefined) | 39.7 µg/mL (≈ 133 µM)
103 | COc1cccc(C(=O)Nc2ccc(NC(=O)C3CC3)nc2)c1 | 1.6 µg/mL (≈ 5.14 µM)
104 | Cc1ccc(S(=O)(=O)N(C)C)cc1NC(=O)C(C)OC(=O)c1cc[n+]([O-])cc1 (centres undefined) | > 61.1 µg/mL
105 | Cc1cccc(NC(=O)N2CCc3ccccc3C2)c1C | 6.5 µg/mL (≈ 23.2 µM)
106 | CC(=O)NCCNC(=O)c1ccc(-n2c(C)ccc2C)cc1 | 35.3 µg/mL (≈ 118 µM)
107 | CCn1c(/C=C/c2ccc(F)cc2)nc2ccccc2c1=O | 1.6 µg/mL (≈ 5.44 µM)
108 | Fc1ccccc1N1CCN(Cc2cnc(Cl)s2)CC1 | 37.1 µg/mL (≈ 119 µM)
109 | COc1ccc(/C=N/NC(=O)c2cc[n+]([O-])cc2)cc1OC | > 45.2 µg/mL
110 | Cc1cc(C)nc(Nc2cc([N+](=O)[O-])ccc2C)n1.Cl | 5.4 µg/mL
111 | O=C(CN1CCCc2ccccc21)NCCc1ccc(Cl)cc1 | 19.3 µg/mL (≈ 58.7 µM)
112 | Cc1ccc(CSC2=Nc3ccccc3C3=NC(=O)CN23)cc1 | 4.9 µg/mL (≈ 15.2 µM)
113 | O=C(COC(=O)c1ccccc1Cl)Nc1ccc2[nH]c(=O)[nH]c2c1 | 23.3 µg/mL (≈ 67.4 µM)
114 | Cc1nc2ccccc2c2oc(C(=O)N3CC(C)CC(C)C3)cc12 (centres undefined) | 35.5 µg/mL (≈ 110 µM)
115 | Cc1cc(O)c(CN(C)C)c2c1C(=O)/C(=C/c1ccco1)O2 | > 44.9 µg/mL
116 | CC1CC(C)(C)NC(=S)N1CCC(=O)N1CCc2ccccc21 (centres undefined) | 14.6 µg/mL (≈ 44 µM)
117 | c1csc(-c2nnc(COc3ncnc4sccc34)o2)c1 | > 47.5 µg/mL
118 | CC(=O)Nc1ccc(NC(C)=O)c(NC2OCC(O)C(O)C2O)c1 (centres undefined) | > 50.9 µg/mL
119 | O=C(COc1ccc(Cl)cc1Br)NC1CC1 | > 45.7 µg/mL
